Tests used:
P388 = assay: In vivo cytotoxicity against mouse P388 cells assessed as life extension at 0.1 ug/kg; assay type: functional, organism-based
Ehrlich = assay: In vivo cytotoxicity against mouse EAC cells; assay type: functional, organism-based

Work on `C=C(/C=C\C[C@@H](O)[C@@H](O)[C@H](O)C/C=C/C=C\[C@@H](O)C[C@@H]1O[C@H](C[C@@H](O)[C@H](O)C[C@H]2O[C@H]([C@H](O)[C@H](O)CC[C@H](O)/C=C/[C@H](C)[C@@H](O)C[C@]3(O)O[C@H](C[C@@H](O)CCCCCCC[C@@]45C[C@@H](C)C[C@@](C)(O4)[C@@H](C[C@@H](C)CCCCC[C@@H](O)[C@H](O)[C@H](O)[C@@H](O)[C@H](O)[C@H]4O[C@H](C[C@H](O)[C@H](O)/C(C)=C/[C@H](O)C[C@@H](C)[C@H](O)C(=O)N/C=C/C(=O)NCCCO)[C@H](O)[C@@H](O)[C@@H]4O)O5)[C@H](O)[C@@H](O)[C@H]3O)C[C@@H](O)[C@@H]2O)[C@@H](O)[C@H](O)[C@H]1O)CC[C@H](O)[C@@H](O)[C@H](O)[C@H](C)C[C@H]1O[C@H](/C=C\[C@@H](O)CC[C@@H]2C[C@@H]3C[C@H](O2)[C@@H](CC[C@H]2O[C@H](CN)C[C@H]2O)O3)[C@@H](O)[C@H](O)[C@H]1O` yielded an Activity (P388) of 32% and an Activity (Ehrlich) of 0.34 µg/kg.
